Assay results as given in patent US9403866B2, “Compositions and methods for increasing telomerase activity” (Telomerase Activation Sciences, Inc., priority 2009, dated 2016).
Like-named read-outs stand apart in the source and are kept apart here.

Key:
[1] = Plasma levels and bioavailability in rats; settings: male, Sprague Dawley, rat, in vivo, po, 10 mg/kg
Protocol: (§1) The plasma levels of a compound following a single intravenous and oral administration in carotid artery-cannulated male Sprague Dawley rats was determined. Plasma samples were collected and used to determine the plasma concentration of the compound and metabolites. In addition tissue samples, including whisker samples and PBMC cells were collected for telomerase activity analysis.
(§2) Carotid artery-cannulated male Sprague Dawley rats were divided into treatment groups according to Table 6. The rats were provided ad libitum SLAC-MO1 # YY080208 (Shanghai Laboratories Animal Center, Shanghai, China) throughout the in-life portion of the study with the exception of the overnight fasting period prior to oral dosing. Water was available ad libitum.
The compounds were dissolved in 2% EtOH/98% water to yield a final concentration of 2.5 mg/ml and 1 mg/ml for both intravenous and oral administration, respectively. The concentration of each compound was confirmed by HPLC analysis.
Body weights were taken on the day of dose administration. Dose volume was determined based on individual body weight taken on day of dosing.
(§3) Blood samples (approximately 250 μL) were collected via cannulae into tubes containing K2-EDTA anticoagulant and 1 mg/ml NaF at the various time points. Blood was stored on ice and then plasma separated via centrifugation (8000 rpm×6 minutes). The plasma was stored at […] until LC-MS/MS analysis.
Percentage of bioavailability was calculated.

[2] = parameters: species or system male Beagle dogs; settings: male, Beagle, dog, in vivo, po, 10 mg/kg
Protocol: as §1, with “level” for “levels”, “in” for “in carotid artery-cannulated”, “Beagle dogs” for “Sprague Dawley rats”
as §2, with “Male Beagle dogs” for “Carotid artery-cannulated male Sprague Dawley rats”, “5.” for “6.”, “dogs” for “rats”, “#W080701” for “# YY080208”
The compounds were dissolved in 2% EtOH/98% water […] to yield a final concentration of 2.5 mg/ml and 1 mg/ml for both intravenous and oral administration, respectively. The concentration of each compound was confirmed by HPLC analysis.
Doses were administered intravenously via the left femoral vein and then by oral dosing one week later. Body weights were taken on the day of dose administration. Dose volume was determined based on individual body weight taken on day of dosing.
as §3, with “right femoral vein” for “cannulae”, “appropriate” for “the various”

telomerase [3] = target: T1, telomerase (Homo sapiens, UniProt O14746); experiment: Keratinocyte cell/TRAP assay (HEKneo-P cells); assay type: cell-based; parameters: host or cells: HEKneo-P (pooled neonatal human epidermal keratinocytes)
T1 sequence (O14746 whole entry): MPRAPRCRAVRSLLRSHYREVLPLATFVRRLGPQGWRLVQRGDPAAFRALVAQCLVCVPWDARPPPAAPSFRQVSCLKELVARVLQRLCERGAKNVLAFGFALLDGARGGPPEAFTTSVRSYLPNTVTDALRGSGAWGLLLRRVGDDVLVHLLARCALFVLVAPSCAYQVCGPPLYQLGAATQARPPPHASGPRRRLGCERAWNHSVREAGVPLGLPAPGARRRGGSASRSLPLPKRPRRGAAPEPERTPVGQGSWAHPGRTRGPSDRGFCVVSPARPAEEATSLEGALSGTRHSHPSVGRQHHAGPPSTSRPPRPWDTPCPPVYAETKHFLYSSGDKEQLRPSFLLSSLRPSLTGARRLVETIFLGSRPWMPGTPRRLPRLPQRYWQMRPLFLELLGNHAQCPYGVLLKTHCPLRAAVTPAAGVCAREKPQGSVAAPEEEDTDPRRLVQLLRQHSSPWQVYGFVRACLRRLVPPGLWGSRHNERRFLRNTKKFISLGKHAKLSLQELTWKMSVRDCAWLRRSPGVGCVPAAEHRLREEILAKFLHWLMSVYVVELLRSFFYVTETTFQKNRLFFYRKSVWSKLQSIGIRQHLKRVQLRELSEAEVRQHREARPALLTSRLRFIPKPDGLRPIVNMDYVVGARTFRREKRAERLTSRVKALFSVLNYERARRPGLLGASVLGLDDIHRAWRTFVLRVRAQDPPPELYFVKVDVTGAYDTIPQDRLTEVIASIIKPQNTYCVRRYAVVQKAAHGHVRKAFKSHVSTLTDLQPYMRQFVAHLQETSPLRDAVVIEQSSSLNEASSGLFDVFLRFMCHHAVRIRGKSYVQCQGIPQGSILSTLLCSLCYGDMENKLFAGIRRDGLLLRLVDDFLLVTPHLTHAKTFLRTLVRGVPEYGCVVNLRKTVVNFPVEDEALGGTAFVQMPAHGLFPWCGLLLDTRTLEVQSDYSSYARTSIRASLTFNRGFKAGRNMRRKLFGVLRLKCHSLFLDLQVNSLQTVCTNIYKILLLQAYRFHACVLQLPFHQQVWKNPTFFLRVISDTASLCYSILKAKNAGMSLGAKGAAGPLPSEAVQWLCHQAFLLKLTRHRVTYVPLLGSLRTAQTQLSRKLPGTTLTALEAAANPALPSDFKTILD
From the text: Harley et al., U.S. Pat. […] Harley et al., U.S. Pat. […] Non-treatment control (NT) was also included. […]

telomerase [4] = target: T1, telomerase; experiment: Peripheral blood monocyte cell (PBMC)/TRAP assay; assay type: cell-based; parameters: host or cells: HEKneo-P (pooled neonatal human epidermal keratinocytes); settings: 24 hours
From the text: Cell lines suitable for use in the assay, normal human peripheral blood mononuclear cells (PBMCs) or Human Epidermal Keratinocytes (neonatal) (HEKs), can be obtained from commercial sources, such as Cascade Biologics, Portland, Oreg. or 4C Biotech, Seneffe, Belgium, or from the ATCC (American Type Culture Collection). ATCC normal human fibroblast cell lines, which can be located on the ATCC web site, include for example, CCL135, CCL137, and CCL151.
PBMC Isolation. Blood was collected in sodium heparin vacutainers and pooled into a single 50 mL polypropylene tube. Blood was diluted 1:1 with 1×PBS and mixed thoroughly by inversion. 25 mL of diluted blood was layered over 12 mL of Lympholyte-H (Cedarlane Laboratories) and centrifuged at room temperature for 20 min at 800 g. […]
Culture Conditions. The cells were counted using Trypan Blue exclusion and resuspended in complete media that is supplemented with 50 Units of hIL-2/mL so that final concentration of cells is 1×10^6/mL. […] At least once a week, cells are counted and media level is adjusted to keep cells around 5—10^5/mL. […]
Treatment with Analogs. After 10-14 days in culture, cells were counted and resuspended in conditioned media at a concentration of 1×10^6/mL. […]
TRAP Reaction and Gel. Samples were analyzed using a 1-step TRAP PCR reaction. […]

Which “Bioavailability % F” value [1] does the source give for CC(C)(O)[C@@H]1CC[C@](C)([C@H]2[C@@H](O)C[C@@]3(C)[C@@H]4C[C@H](O)[C@H]5C(C)(C)[C@@H](O)CC[C@@]56C[C@@]46CC[C@]23C)O1 [Compound 2, 17-[5-(1-Hydroxy-1-methyl-ethyl)-2-methyl-tetrahydro-furan-2-yl]-4,4,13,14-tetramethyl-tetradecahydro-cyclopropa[9,10]cyclopenta[a]phenanthrene-3β,6α,16β-triol, reference compound] here?
The value was 22.6%.

And the “Bioavailability % F” value [2]?
The value was 3%.

And the “Max fold increase of activity” value (telomerase [3])?
The value was 3.3 fold.

And the “Activity in in vitro HEK assay” value (telomerase [3]; 24 hr, 0.01 to 10 μM, vs vehicle control at peak of full dose curve)?
Its value is “+ (telomerase activation is 2 fold or more in comparison with vehicle control at the peak of the full dose curve.)”.

And the EC50 (telomerase [3]; telomerase activation)?
The EC50 was 30 nM.

And the “Fold increase at 1 μM” value (telomerase [4])?
The value was 1.6-20.7 fold.
